Tests used:
[1] = Compound cytotoxicity, XTT-based colorimetric assay; assay type: cell-based; conditions: human; uninfected MT2 cells, day 4, XTT; read-out: CC50
How it was run: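 CC50 derived from XTT colorimetric signal measured on day 4 in MT2 cells that were not infected. All other steps followed the antiviral assay protocol.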

[2] = tested on: recombinant NL4-3 virus (nef section replaced with Renilla luciferase gene) in MT-2 cells; test: HIV cell culture assay (antiviral activity, luciferase readout); assay type: cell-based; conditions: Renilla, NL43, MT-2 cells infected for 4-5 days with recombinant NL4-3 Renilla luciferase virus
How it was run: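 Read-out: Renilla luciferase (live-cell substrate) in infected MT-2 cells after 4-5 d with serial compound dilutions. Virus from 293T transfection of the proviral clone, titered by luciferase in MT-2. EC50 via median effect equation fit.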

| SMILES | CC50 at 4 days [1] | EC50 [2] |
| --- | --- | --- |
| Cc1cc(C2(F)CCC(F)(F)CC2)nc2nc([C@H](Cc3cc(F)cc(F)c3)NC(=O)Cn3nc(C4CC4)c4c3C[C@@H]3C[C@H]43)n(-c3ccc(Cl)c4c(NS(C)(=O)=O)nn(CCN5C[C@H]6CC[C@@H](C5)O6)c34)c(=O)c12 (atropisomer, axis not shown; (P)) [Example 592, N-[(1S)-1-[(3P)-3-(4-chloro-3-methanesulfonamido-1-{2-[(1R,5S)-8-oxa-3-azabicyclo[3.2.1]octan-3-yl]ethyl}-1H-indazol-7-yl)-5-methyl-4-oxo-7-(1,4,4-trifluorocyclohexyl)-3H,4H-pyrido[2,3-d]pyrimidin-2-yl]-2-(3,5-difluorophenyl)ethyl]-2-[(2S,4S)-9-cyclopropyl-7,8-diazatricyclo[4.3.0.0^2,^4]nona-1(6),8-dien-7-yl]acetamide] | > 20 nM | 0.006 nM |
| CS(=O)(=O)Nc1nn(CCOCC(F)(F)F)c2c(-n3c([C@H](Cc4cc(F)cc(F)c4)NC(=O)Cn4nc(C(F)F)c5c4C(F)(F)[C@@H]4C[C@H]54)nc4nc(C5CCC(F)(F)CC5)cc(C(F)F)c4c3=O)ccc(Cl)c12 (atropisomer, axis not shown; (P)) [Example 155, N-[(1S)-1-[(3P)-3-{4-chloro-3-methanesulfonamido-1-[2-(2,2,2-trifluoroethoxy)ethyl]-1H-indazol-7-yl}-7-(4,4-difluorocyclohexyl)-5-(difluoromethyl)-4-oxo-3H,4H-pyrido[2,3-d]pyrimidin-2-yl]-2-(3,5-difluorophenyl)ethyl]-2-[(2S,4R)-9-(difluoromethyl)-5,5-difluoro-7,8-diazatricyclo[4.3.0.0^2,^4]nona-1(6),8-dien-7-yl]acetamide] | > 50 nM | 0.027 nM |
| Cc1cc(C2CCC(F)(F)CC2)nc2nc([C@H](Cc3cc(F)cc(F)c3)NC(=O)Cn3nc(C(F)F)c4c3C(F)(F)[C@@H]3C[C@H]43)n(-c3ccc(Cl)c4c(NS(C)(=O)=O)nn(CCN5CCCCC5)c34)c(=O)c12 (atropisomer, axis not shown; (P)) [Example 269, N-[(1S)-1-[(3P)-3-{4-chloro-3-methanesulfonamido-1-[2-(piperidin-1-yl)ethyl]-1H-indazol-7-yl}-7-(4,4-difluorocyclohexyl)-5-methyl-4-oxo-3H,4H-pyrido[2,3-d]pyrimidin-2-yl]-2-(3,5-difluorophenyl)ethyl]-2-[(2S,4R)-9-(difluoromethyl)-5,5-difluoro-7,8-diazatricyclo[4.3.0.0^2,^4]nona-1(6),8-dien-7-yl]acetamide] | > 50 nM | 0.018 nM |
| COCCCn1nc(NS(C)(=O)=O)c2c(Cl)ccc(-n3c([C@H](Cc4cc(F)cc(F)c4)NC(=O)Cn4nc(C(F)F)c5c4C[C@@H]4C[C@H]54)nc4nc(C5CCC(F)(F)CC5)cc(C)c4c3=O)c21 (atropisomer, axis not shown; (P)) [Example 86, N-[(1S)-1-[(3P)-3-[4-chloro-3-methanesulfonamido-1-(3-methoxypropyl)-1H-indazol-7-yl]-7-(4,4-difluorocyclohexyl)-5-methyl-4-oxo-3H,4H-pyrido[2,3-d]pyrimidin-2-yl]-2-(3,5-difluorophenyl)ethyl]-2-[(2S,4S)-9-(difluoromethyl)-7,8-diazatricyclo[4.3.0.0^2,^4]nona-1(6),8-dien-7-yl]acetamide] | > 50 nM | 0.011 nM |
| CC1(F)CCN(CCn2nc(NS(C)(=O)=O)c3c(Cl)ccc(-n4c([C@H](Cc5cc(F)cc(F)c5)NC(=O)Cn5nc(C(F)F)c6c5C(F)(F)[C@@H]5C[C@H]65)nc5nc(C6CCC(F)(F)CC6)ccc5c4=O)c32)C1 (stereo partly drawn) [Example 211, N-[(1S)-1-[(3P)-3-{4-chloro-1-[2-(3-fluoro-3-methylpyrrolidin-1-yl)ethyl]-3-methanesulfonamido-1H-indazol-7-yl}-7-(4,4-difluorocyclohexyl)-4-oxo-3H,4H-pyrido[2,3-d]pyrimidin-2-yl]-2-(3,5-difluorophenyl)ethyl]-2-[(2S,4R)-9-(difluoromethyl)-5,5-difluoro-7,8-diazatricyclo[4.3.0.0^2,^4]nona-1(6),8-dien-7-yl]acetamide] | > 50 nM | 0.012 nM |
| CS(=O)(=O)Nc1nn(CCN2CCC(F)CC2)c2c(-n3c([C@H](Cc4cc(F)cc(F)c4)NC(=O)Cn4nc(C5CC5)c5c4C[C@@H]4C[C@H]54)nc4nc(C5CCC(F)(F)CC5)cc(C(F)F)c4c3=O)ccc(Cl)c12 (atropisomer, axis not shown; (P)) [Example 371, N-[(1S)-1-[(3P)-3-{4-chloro-1-[2-(4-fluoropiperidin-1-yl)ethyl]-3-methanesulfonamido-1H-indazol-7-yl}-7-(4,4-difluorocyclohexyl)-5-(difluoromethyl)-4-oxo-3H,4H-pyrido[2,3-d]pyrimidin-2-yl]-2-(3,5-difluorophenyl)ethyl]-2-[(2S,4S)-9-cyclopropyl-7,8-diazatricyclo[4.3.0.0^2,^4]nona-1(6),8-dien-7-yl]acetamide] | > 20 nM | 0.009 nM |
| CS(=O)(=O)Nc1nn(CCN2CCC(F)(F)CC2)c2c(-n3c([C@H](Cc4cc(F)cc(F)c4)NC(=O)Cn4nc(C(F)F)c5c4C(F)(F)[C@@H]4C[C@H]54)nc4nc(C5CCC(F)(F)CC5)cc(C(F)F)c4c3=O)ccc(Cl)c12 (atropisomer, axis not shown; (P)) [Example 149, N-[(1S)-1-[(3P)-3-{4-chloro-1-[2-(4,4-difluoropiperidin-1-yl)ethyl]-3-methanesulfonamido-1H-indazol-7-yl}-7-(4,4-difluorocyclohexyl)-5-(difluoromethyl)-4-oxo-3H,4H-pyrido[2,3-d]pyrimidin-2-yl]-2-(3,5-difluorophenyl)ethyl]-2-[(2S,4R)-9-(difluoromethyl)-5,5-difluoro-7,8-diazatricyclo[4.3.0.0^2,^4]nona-1(6),8-dien-7-yl]acetamide] | > 50 nM | 0.018 nM |
| Cc1cc(C2CCC(F)(F)CC2)nc2nc([C@H](Cc3cc(F)cc(F)c3)NC(=O)Cn3nc(C(F)F)c4c3C(F)(F)[C@@H]3C[C@H]43)n(-c3ccc(Cl)c4c(NS(C)(=O)=O)nn(CCN5CCOCC5)c34)c(=O)c12 (atropisomer, axis not shown; (P)) [Example 105, N-[(1S)-1-[(3P)-3-{4-chloro-3-methanesulfonamido-1-[2-(morpholin-4-yl)ethyl]-1H-indazol-7-yl}-7-(4,4-difluorocyclohexyl)-5-methyl-4-oxo-3H,4H-pyrido[2,3-d]pyrimidin-2-yl]-2-(3,5-difluorophenyl)ethyl]-2-[(2S,4R)-9-(difluoromethyl)-5,5-difluoro-7,8-diazatricyclo[4.3.0.0^2,^4]nona-1(6),8-dien-7-yl]acetamide] | > 50 nM | 0.011 nM |
| Cc1cc(C2(F)CCC(F)(F)CC2)nc2nc([C@H](Cc3cc(F)cc(F)c3)NC(=O)Cn3nc(C(F)F)c4c3C(F)(F)[C@@H]3C[C@H]43)n(-c3ccc(Cl)c4c(NS(C)(=O)=O)nn(CCN5C[C@H](C)OC(C)(C)C5)c34)c(=O)c12 (atropisomer, axis not shown; (P)) [Example 576] | > 20 nM | 0.01 nM |
| Cc1cc(C2CCC(F)(F)CC2)nc2nc([C@H](Cc3cc(F)cc(F)c3)NC(=O)Cn3nc(C(F)F)c4c3C(F)(F)[C@@H]3C[C@H]43)n(-c3ccc(Cl)c4c(NS(C)(=O)=O)nn(CCOCC(F)(F)F)c34)c(=O)c12 (atropisomer, axis not shown; (P)) [Example 72, N-[(1S)-1-[(3P)-3-{4-chloro-3-methanesulfonamido-1-[2-(2,2,2-trifluoroethoxy)ethyl]-1H-indazol-7-yl}-7-(4,4-difluorocyclohexyl)-5-methyl-4-oxo-3H,4H-pyrido[2,3-d]pyrimidin-2-yl]-2-(3,5-difluorophenyl)ethyl]-2-[(2S,4R)-9-(difluoromethyl)-5,5-difluoro-7,8-diazatricyclo[4.3.0.0^2,^4]nona-1(6),8-dien-7-yl]acetamide] | > 50 nM | 0.029 nM |
| CS(=O)(=O)Nc1nn(CCN(CCC(F)(F)F)CCC(F)(F)F)c2c(-n3c([C@H](Cc4cc(F)cc(F)c4)NC(=O)Cn4nc(C(F)F)c5c4C(F)(F)[C@@H]4C[C@H]54)nc4nc(C5CCC(F)(F)CC5)ccc4c3=O)ccc(Cl)c12 (atropisomer, axis not shown; (P)) [Example 671, N-[(1S)-1-[(3P)-3-(1-{2-[bis(3,3,3-trifluoropropyl)amino]ethyl}-4-chloro-3-methanesulfonamido-1H-indazol-7-yl)-7-(4,4-difluorocyclohexyl)-4-oxo-3H,4H-pyrido[2,3-d]pyrimidin-2-yl]-2-(3,5-difluorophenyl)ethyl]-2-[(2S,4R)-9-(difluoromethyl)-5,5-difluoro-7,8-diazatricyclo[4.3.0.0^2,^4]nona-1(6),8-dien-7-yl]acetamide] | > 20 nM | 0.027 nM |
| COCCCn1nc(NS(C)(=O)=O)c2c(Cl)ccc(-n3c([C@H](Cc4cc(F)cc(F)c4)NC(=O)Cn4nc(C(F)F)c5c4C(F)(F)[C@@H]4C[C@H]54)nc4nc(C5CCC(F)(F)CC5)cc(NCCN(C)C)c4c3=O)c21 (atropisomer, axis not shown; (P)) [Example 522, N-[(1S)-1-[(3P)-3-[4-chloro-3-methanesulfonamido-1-(3-methoxypropyl)-1H-indazol-7-yl]-7-(4,4-difluorocyclohexyl)-5-{[2-(dimethylamino)ethyl]amino}-4-oxo-3H,4H-pyrido[2,3-d]pyrimidin-2-yl]-2-(3,5-difluorophenyl)ethyl]-2-[(2S,4R)-9-(difluoromethyl)-5,5-difluoro-7,8-diazatricyclo[4.3.0.0^2,^4]nona-1(6),8-dien-7-yl]acetamide] | > 20 nM | 0.014 nM |
